Experimental data taken from patent US6664284B2, “Stabilized carvedilol injection solution” (Roche Diagnostics GmbH, priority 1998, dated 2003).
In brackets after ≈: the same amount, converted by molar mass. Each block holds one molecule with its values, some of them ahead of it.

Experiments:
[1] = Solubility of loop diuretics in the acidic to maximum neutral aqueous formulations; details: acidic to neutral aqueous carvedilol injection solutions, aqueous with cosolvent or surfactant or cyclodextrin
lipid peroxidation = details: reported by Yue et al.; cited from earlier work
physchem [2] = details: pH 6.1, water
physchem [3] = details: aqueous with cosolvent or surfactant or cyclodextrin

solubility [1]: 1000 to 3000 µg/mL (≈ 2700 to 8090 µM)
Structure (SMILES): NS(=O)(=O)c1cc(-c2nnn[nH]2)c(NCc2cccs2)cc1Cl [azosemide]

solubility (physchem [2]): ~2 µg/mL (≈ 4.92 µM)
solubility of carvedilol in water (pH 6.1): about 0.2 mg/100 ml
pH value resulting from saturated solution in water (water): 6.1
Structure (SMILES): COc1ccccc1OCCNCC(O)COc1cccc2[nH]c3ccccc3c12 (stereo not drawn) [carvedilol, 1-(9H-carbazol-4-yloxy)-3-[[2-(2-methoxyphenoxy)ethyl]amino]-2-propanol]
antioxidative activity, lipid peroxidation (lipid peroxidation): inhibit lipid peroxidation

solubility (physchem [3]): 1000 to 2000 µg/mL (≈ 2870 to 5740 µM)
Structure (SMILES): Cc1cccc(Nc2ccncc2S(=O)(=O)NC(=O)NC(C)C)c1 [Torasemide]
